IC50 data for 16 compounds are collected here from patent US20180022786A1, “NOVEL SODIUM CHANNEL BLOCKING PEPTIDES AND THE USE THEREOF” (priority 2012, published 2018).

Experiment [1] concerns the target T1, Nav1.7 (Homo sapiens, UniProt Q15858). Briefly: cell-based.
Target sequence in this assay (Q15858 other isoform, or with tags, fused parts or gaps): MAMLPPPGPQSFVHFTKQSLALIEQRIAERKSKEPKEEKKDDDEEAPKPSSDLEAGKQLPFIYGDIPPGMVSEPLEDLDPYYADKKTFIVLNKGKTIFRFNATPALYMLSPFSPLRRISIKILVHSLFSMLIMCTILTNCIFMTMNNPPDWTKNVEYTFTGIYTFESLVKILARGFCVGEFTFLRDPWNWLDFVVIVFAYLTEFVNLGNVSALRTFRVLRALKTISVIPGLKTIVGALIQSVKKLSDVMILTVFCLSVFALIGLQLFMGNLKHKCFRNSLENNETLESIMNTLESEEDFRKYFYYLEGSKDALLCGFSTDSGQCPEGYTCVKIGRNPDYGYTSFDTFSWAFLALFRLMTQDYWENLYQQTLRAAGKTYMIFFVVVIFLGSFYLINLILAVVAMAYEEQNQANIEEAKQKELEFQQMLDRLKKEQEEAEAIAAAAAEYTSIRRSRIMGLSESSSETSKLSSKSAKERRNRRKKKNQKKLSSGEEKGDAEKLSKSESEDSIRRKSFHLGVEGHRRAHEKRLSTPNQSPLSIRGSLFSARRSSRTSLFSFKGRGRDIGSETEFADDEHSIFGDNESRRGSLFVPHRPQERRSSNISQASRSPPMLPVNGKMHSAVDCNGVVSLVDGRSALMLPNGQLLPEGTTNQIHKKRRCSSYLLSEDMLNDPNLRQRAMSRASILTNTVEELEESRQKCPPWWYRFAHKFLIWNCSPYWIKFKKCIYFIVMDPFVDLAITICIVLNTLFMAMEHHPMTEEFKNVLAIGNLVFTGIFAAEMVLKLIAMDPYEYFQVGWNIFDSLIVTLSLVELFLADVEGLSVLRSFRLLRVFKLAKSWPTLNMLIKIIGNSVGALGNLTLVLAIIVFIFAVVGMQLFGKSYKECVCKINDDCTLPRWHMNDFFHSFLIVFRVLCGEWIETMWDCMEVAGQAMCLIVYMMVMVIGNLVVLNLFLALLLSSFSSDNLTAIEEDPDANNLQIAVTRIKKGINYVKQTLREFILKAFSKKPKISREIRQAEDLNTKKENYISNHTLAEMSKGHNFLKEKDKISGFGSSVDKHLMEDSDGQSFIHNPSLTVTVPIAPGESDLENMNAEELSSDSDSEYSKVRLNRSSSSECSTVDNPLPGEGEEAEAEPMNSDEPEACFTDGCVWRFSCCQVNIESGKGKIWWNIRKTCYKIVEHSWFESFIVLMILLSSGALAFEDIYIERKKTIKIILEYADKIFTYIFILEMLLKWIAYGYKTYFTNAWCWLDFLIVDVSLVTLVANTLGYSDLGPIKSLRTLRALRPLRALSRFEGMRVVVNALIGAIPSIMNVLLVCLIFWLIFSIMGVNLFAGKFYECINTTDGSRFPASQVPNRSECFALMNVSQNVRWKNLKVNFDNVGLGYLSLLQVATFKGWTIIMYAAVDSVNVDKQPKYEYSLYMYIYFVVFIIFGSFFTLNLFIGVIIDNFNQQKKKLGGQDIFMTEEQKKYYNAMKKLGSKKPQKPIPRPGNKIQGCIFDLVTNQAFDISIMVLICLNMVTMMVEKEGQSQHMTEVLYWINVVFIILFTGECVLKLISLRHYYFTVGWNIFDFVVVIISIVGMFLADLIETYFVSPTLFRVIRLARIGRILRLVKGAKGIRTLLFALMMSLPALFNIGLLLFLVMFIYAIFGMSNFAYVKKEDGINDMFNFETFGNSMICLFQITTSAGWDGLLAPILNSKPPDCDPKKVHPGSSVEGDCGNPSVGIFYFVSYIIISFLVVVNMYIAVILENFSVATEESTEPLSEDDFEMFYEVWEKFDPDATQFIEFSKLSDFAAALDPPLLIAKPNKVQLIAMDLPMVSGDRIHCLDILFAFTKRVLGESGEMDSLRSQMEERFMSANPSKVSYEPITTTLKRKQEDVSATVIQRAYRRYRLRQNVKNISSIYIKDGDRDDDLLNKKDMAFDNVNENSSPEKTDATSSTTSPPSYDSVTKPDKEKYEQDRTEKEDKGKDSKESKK
For experiment [2], the target named is T2, Nav1.2 (Rattus norvegicus, UniProt P04775). Briefly: cell-based. The following applies: EP (electrophysiology).
The next experiment has as its target Nav1.6 (Homo sapiens, UniProt Q9UQD0). Conditions: read-out: TTX IC50; cited from earlier work.
The target in another experiment is Nav1.3 (Homo sapiens, UniProt Q9NY46). The following applies: read-out: TTX IC50; cited from earlier work.
In another experiment the target is Nav1.1 (Homo sapiens, UniProt P35498). The following applies: read-out: TTX IC50; cited from earlier work.
Another experiment has as its target Nav1.9 (Homo sapiens, UniProt Q9UI33). The following applies: read-out: TTX IC50; cited from earlier work.
The next experiment deals with Nav1.8 (Homo sapiens, UniProt Q9Y5Y9). The following applies: read-out: TTX IC50; cited from earlier work.
Experiment [3] has as its target Nav1.2 (Homo sapiens, UniProt Q99250). The following applies: read-out: TTX IC50; cited from earlier work.
In experiment [4] the target is T1, Nav1.7. Conditions: Table 2, natural toxins, from WO 2012/004664 A2; cited from earlier work.
The target in experiment [5] is T2, Nav1.2. Conditions: cited from earlier work.
Where [6] appears, read: FLIPR, read-out: Nav1.7 IC50 FLIPR.
[7] abbreviates: Table 2, natural toxins, from WO 2012/004664 A2.

Where two headings read alike, the source gives them in different places.

T2 sequence (P04775 whole entry): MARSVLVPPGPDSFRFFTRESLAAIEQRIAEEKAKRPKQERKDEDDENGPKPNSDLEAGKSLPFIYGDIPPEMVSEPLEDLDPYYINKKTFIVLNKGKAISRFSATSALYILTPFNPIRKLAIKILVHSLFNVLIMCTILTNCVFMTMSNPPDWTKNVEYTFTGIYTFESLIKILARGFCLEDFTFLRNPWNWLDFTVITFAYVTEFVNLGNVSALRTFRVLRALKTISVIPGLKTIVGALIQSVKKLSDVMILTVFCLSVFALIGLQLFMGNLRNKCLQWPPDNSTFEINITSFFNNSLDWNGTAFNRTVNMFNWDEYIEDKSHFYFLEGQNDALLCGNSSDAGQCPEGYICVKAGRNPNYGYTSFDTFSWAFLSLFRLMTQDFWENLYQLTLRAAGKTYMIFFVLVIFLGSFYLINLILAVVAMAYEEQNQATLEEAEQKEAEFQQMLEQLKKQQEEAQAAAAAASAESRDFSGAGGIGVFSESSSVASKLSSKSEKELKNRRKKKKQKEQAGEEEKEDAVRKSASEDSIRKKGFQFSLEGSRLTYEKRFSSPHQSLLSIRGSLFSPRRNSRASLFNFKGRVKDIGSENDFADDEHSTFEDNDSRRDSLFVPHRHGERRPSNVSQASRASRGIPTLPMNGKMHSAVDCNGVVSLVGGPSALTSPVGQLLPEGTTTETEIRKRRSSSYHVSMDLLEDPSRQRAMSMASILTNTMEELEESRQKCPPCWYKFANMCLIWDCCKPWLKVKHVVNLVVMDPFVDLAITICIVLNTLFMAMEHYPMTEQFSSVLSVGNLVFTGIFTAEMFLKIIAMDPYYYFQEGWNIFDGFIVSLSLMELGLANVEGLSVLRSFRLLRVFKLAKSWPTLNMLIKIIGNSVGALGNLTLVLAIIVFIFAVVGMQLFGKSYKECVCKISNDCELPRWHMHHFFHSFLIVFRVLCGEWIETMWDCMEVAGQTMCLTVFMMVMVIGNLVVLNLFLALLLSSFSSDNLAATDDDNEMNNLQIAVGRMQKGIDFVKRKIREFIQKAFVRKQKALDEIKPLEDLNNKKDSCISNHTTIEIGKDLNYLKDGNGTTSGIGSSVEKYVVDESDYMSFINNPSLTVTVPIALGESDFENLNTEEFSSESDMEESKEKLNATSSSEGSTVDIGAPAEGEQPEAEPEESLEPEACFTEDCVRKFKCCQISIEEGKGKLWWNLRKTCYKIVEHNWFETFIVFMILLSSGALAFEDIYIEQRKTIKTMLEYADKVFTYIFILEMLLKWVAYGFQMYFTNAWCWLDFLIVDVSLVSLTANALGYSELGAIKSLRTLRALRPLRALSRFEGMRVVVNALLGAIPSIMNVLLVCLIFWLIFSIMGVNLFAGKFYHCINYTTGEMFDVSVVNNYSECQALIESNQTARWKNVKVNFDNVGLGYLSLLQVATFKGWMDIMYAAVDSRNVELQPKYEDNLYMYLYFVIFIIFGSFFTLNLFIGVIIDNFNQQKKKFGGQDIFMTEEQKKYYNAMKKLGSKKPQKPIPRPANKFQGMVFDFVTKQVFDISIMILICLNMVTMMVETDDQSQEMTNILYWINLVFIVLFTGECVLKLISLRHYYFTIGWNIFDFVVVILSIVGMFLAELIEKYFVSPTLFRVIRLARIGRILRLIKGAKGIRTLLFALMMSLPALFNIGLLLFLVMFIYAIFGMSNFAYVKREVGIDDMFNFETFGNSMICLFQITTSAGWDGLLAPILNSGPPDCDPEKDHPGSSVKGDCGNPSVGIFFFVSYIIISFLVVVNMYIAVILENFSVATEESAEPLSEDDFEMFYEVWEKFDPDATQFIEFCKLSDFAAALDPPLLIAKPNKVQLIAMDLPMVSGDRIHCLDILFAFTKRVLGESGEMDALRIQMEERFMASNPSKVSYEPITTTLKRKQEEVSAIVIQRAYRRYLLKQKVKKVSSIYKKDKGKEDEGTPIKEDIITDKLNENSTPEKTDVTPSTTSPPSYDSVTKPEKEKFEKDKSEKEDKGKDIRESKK

Broadly, the IC50 is the concentration that gives 50% inhibition. Take `CSCC[C@@H]1NC(=O)CNC(=O)[C@H](CCC(=O)O)NC(=O)[C@@H]2CSSC[C@H](NC(=O)[C@@H](N)Cc3ccc(O)cc3)C(=O)N[C@@H](CCC(N)=O)C(=O)N[C@@H](CCCCN)C(=O)N[C@@H](Cc3c[nH]c4ccccc34)C(=O)N[C@@H](CCSC)C(=O)N[C@@H](Cc3c[nH]c4ccccc34)C(=O)N[C@@H]([C@@H](C)O)C(=O)N[C@H]3CSSC[C@H](NC(=O)[C@H](C(C)C)NC1=O)C(=O)N[C@@H](CCCNC(=N)N)C(=O)N[C@@H](CC(C)C)C(=O)N[C@@H](Cc1c[nH]c4ccccc14)C(=O)N[C@H](C(=O)N[C@@H](CCCCN)C(=O)N[C@@H](CCCCN)C(=O)N[C@@H](CCCCN)C(=O)N[C@@H](CC(C)C)C(=O)N[C@H](Cc1c[nH]c4ccccc14)C(=O)NC1CCCCC1)CSSC[C@H](NC(=O)[C@H](CCCCN)NC(=O)[C@H](CCCNC(=N)N)NC(=O)[C@H](CCC(=O)O)NC(=O)[C@H](CO)NC(=O)[C@H](CC(=O)O)NC3=O)C(=O)N2` [Protoxin II (D)-NHcyclohexyl]: at Nav1.7 [1] (setting [6]), the IC50 worked out at 31 nM.
Consider `CSCC[C@@H]1NC(=O)CNC(=O)[C@H](CCC(=O)O)NC(=O)[C@@H]2CSSC[C@H](NC(=O)[C@@H](N)Cc3ccc(O)cc3)C(=O)N[C@@H](CCC(N)=O)C(=O)N[C@@H](CCCCN)C(=O)N[C@@H](Cc3c[nH]c4ccccc34)C(=O)N[C@@H](CCSC)C(=O)N[C@@H](Cc3c[nH]c4ccccc34)C(=O)N[C@@H]([C@@H](C)O)C(=O)N[C@H]3CSSC[C@H](NC(=O)[C@H](C(C)C)NC1=O)C(=O)N[C@@H](CCCNC(=N)N)C(=O)N[C@@H](CC(C)C)C(=O)N[C@@H](Cc1c[nH]c4ccccc14)C(=O)N[C@H](C(=O)N[C@@H](CCCCN)C(=O)N[C@@H](CCCCN)C(=O)N[C@@H](CCCCN)C(=O)N[C@@H](CC(C)C)C(=O)N[C@@H](Cc1c[nH]c4ccccc14)C(=O)N[C@H](Cc1c[nH]c4ccccc14)C(=O)O)CSSC[C@H](NC(=O)[C@H](CCCCN)NC(=O)[C@H](CCCNC(=N)N)NC(=O)[C@H](CCC(=O)O)NC(=O)[C@H](CO)NC(=O)[C@H](CC(=O)O)NC3=O)C(=O)N2` [Protoxin II-D-Trp], for which the IC50 at Nav1.7 [1] (setting [6]) is 16.5 nM.
On the same count and under the same terms, under `CNC(=O)[C@H](Cc1c[nH]c2ccccc12)NC(=O)[C@H](CC(C)C)NC(=O)[C@H](CCCCN)NC(=O)[C@H](CCCCN)NC(=O)[C@H](CCCCN)NC(=O)[C@@H]1CSSC[C@@H]2NC(=O)[C@H](CCCCN)NC(=O)[C@H](CCCNC(=N)N)NC(=O)[C@H](CCC(=O)O)NC(=O)[C@H](CO)NC(=O)[C@H](CC(=O)O)NC(=O)[C@@H]3CSSC[C@H](NC(=O)[C@H](C(C)C)NC(=O)[C@H](CCSC)NC(=O)CNC(=O)[C@H](CCC(=O)O)NC(=O)[C@H](CSSC[C@H](NC(=O)[C@@H](N)Cc4ccc(O)cc4)C(=O)N[C@@H](CCC(N)=O)C(=O)N[C@@H](CCCCN)C(=O)N[C@@H](Cc4c[nH]c5ccccc45)C(=O)N[C@@H](CCSC)C(=O)N[C@@H](Cc4c[nH]c5ccccc45)C(=O)N[C@@H]([C@@H](C)O)C(=O)N3)NC2=O)C(=O)N[C@@H](CCCNC(=N)N)C(=O)N[C@@H](CC(C)C)C(=O)N[C@@H](Cc2c[nH]c3ccccc23)C(=O)N1` [Protoxin II-NHMe] stands 64.3 nM.
At Nav1.7 [1], `CSCC[C@@H]1NC(=O)CNC(=O)[C@H](CCC(=O)O)NC(=O)[C@@H]2CSSC[C@H](NC(=O)[C@@H](N)Cc3ccc(O)cc3)C(=O)N[C@@H](CCC(N)=O)C(=O)N[C@@H](CCCCN)C(=O)N[C@@H](Cc3c[nH]c4ccccc34)C(=O)N[C@@H](CCSC)C(=O)N[C@@H](Cc3c[nH]c4ccccc34)C(=O)N[C@@H]([C@@H](C)O)C(=O)N[C@H]3CSSC[C@H](NC(=O)[C@H](C(C)C)NC1=O)C(=O)N[C@@H](CCCNC(=N)N)C(=O)N[C@@H](CC(C)C)C(=O)N[C@@H](Cc1c[nH]c4ccccc14)C(=O)N[C@H](C(=O)N[C@@H](CCCCN)C(=O)N[C@@H](CCCCN)C(=O)N[C@@H](CCCCN)C(=O)N[C@@H](CC(C)C)C(=O)N[C@@H](Cc1c[nH]c4ccccc14)C(=O)Nc1ccccc1)CSSC[C@H](NC(=O)[C@H](CCCCN)NC(=O)[C@H](CCCNC(=N)N)NC(=O)[C@H](CCC(=O)O)NC(=O)[C@H](CO)NC(=O)[C@H](CC(=O)O)NC3=O)C(=O)N2` [Protoxin II-NHanaline] came in with an IC50 of 5.1 nM.
Take `CSCC[C@@H]1NC(=O)CNC(=O)[C@H](CCC(=O)O)NC(=O)[C@@H]2CSSC[C@H](NC(=O)[C@@H](N)Cc3ccc(O)cc3)C(=O)N[C@@H](CCC(N)=O)C(=O)N[C@@H](CCCCN)C(=O)N[C@@H](Cc3c[nH]c4ccccc34)C(=O)N[C@@H](CCSC)C(=O)N[C@@H](Cc3c[nH]c4ccccc34)C(=O)N[C@@H]([C@@H](C)O)C(=O)N[C@H]3CSSC[C@H](NC(=O)[C@H](C(C)C)NC1=O)C(=O)N[C@@H](CCCNC(=N)N)C(=O)N[C@@H](CC(C)C)C(=O)N[C@@H](Cc1c[nH]c4ccccc14)C(=O)N[C@H](C(=O)N[C@@H](CCCCN)C(=O)N[C@@H](CCCCN)C(=O)N[C@@H](CCCCN)C(=O)N[C@@H](CC(C)C)C(=O)N[C@@H](Cc1c[nH]c4ccccc14)C(=O)NC1CCCCC1)CSSC[C@H](NC(=O)[C@H](CCCCN)NC(=O)[C@H](CCCNC(=N)N)NC(=O)[C@H](CCC(=O)O)NC(=O)[C@H](CO)NC(=O)[C@H](CC(=O)O)NC3=O)C(=O)N2` [Protoxin II-NHcyclohexyl]: on Nav1.7 [1] (setting [6]), the IC50 came to 22 nM.
For `COC(=O)[C@H](Cc1c[nH]c2ccccc12)NC(=O)[C@H](CC(C)C)NC(=O)[C@H](CCCCN)NC(=O)[C@H](CCCCN)NC(=O)[C@H](CCCCN)NC(=O)[C@@H]1CSSC[C@@H]2NC(=O)[C@H](CCCCN)NC(=O)[C@H](CCCNC(=N)N)NC(=O)[C@H](CCC(=O)O)NC(=O)[C@H](CO)NC(=O)[C@H](CC(=O)O)NC(=O)[C@@H]3CSSC[C@H](NC(=O)[C@H](C(C)C)NC(=O)[C@H](CCSC)NC(=O)CNC(=O)[C@H](CCC(=O)O)NC(=O)[C@H](CSSC[C@H](NC(=O)[C@@H](N)Cc4ccc(O)cc4)C(=O)N[C@@H](CCC(N)=O)C(=O)N[C@@H](CCCCN)C(=O)N[C@@H](Cc4c[nH]c5ccccc45)C(=O)N[C@@H](CCSC)C(=O)N[C@@H](Cc4c[nH]c5ccccc45)C(=O)N[C@@H]([C@@H](C)O)C(=O)N3)NC2=O)C(=O)N[C@@H](CCCNC(=N)N)C(=O)N[C@@H](CC(C)C)C(=O)N[C@@H](Cc2c[nH]c3ccccc23)C(=O)N1` [Protoxin II-OMe], at Nav1.7 [1] (setting [6]), the 50% inhibitory concentration (IC50) is 8.4 nM.
Regarding `CSCC[C@@H]1NC(=O)CNC(=O)[C@H](CCC(=O)O)NC(=O)[C@@H]2CSSC[C@H](NC(=O)[C@@H](N)Cc3ccc(O)cc3)C(=O)N[C@@H](CCC(N)=O)C(=O)N[C@@H](CCCCN)C(=O)N[C@@H](Cc3c[nH]c4ccccc34)C(=O)N[C@@H](CCSC)C(=O)N[C@@H](Cc3c[nH]c4ccccc34)C(=O)N[C@@H]([C@@H](C)O)C(=O)N[C@H]3CSSC[C@H](NC(=O)[C@H](C(C)C)NC1=O)C(=O)N[C@@H](CCCNC(=N)N)C(=O)N[C@@H](CC(C)C)C(=O)N[C@@H](Cc1c[nH]c4ccccc14)C(=O)N[C@H](C(=O)N[C@@H](CCCCN)C(=O)N[C@@H](CCCCN)C(=O)N[C@@H](CCCCN)C(=O)N[C@@H](CC(C)C)C(=O)N[C@@H](Cc1c[nH]c4ccccc14)C(=O)O)CSSC[C@H](NC(=O)[C@H](CCCCN)NC(=O)[C@H](CCCNC(=N)N)NC(=O)[C@H](CCC(=O)O)NC(=O)[C@H](CO)NC(=O)[C@H](CC(=O)O)NC3=O)C(=O)N2` [Protoxin II], the midpoint of inhibition on Nav1.2 [2], the IC50, lay at 100 nM.
Turning to `NC1=N[C@H](O)[C@H]2[C@H]3O[C@]4(O)O[C@@H]([C@@H](O)[C@@]2(N1)[C@@H]4O)[C@]3(O)CO` [TTX, tetrodotoxin], the IC50 is 6 nM on Nav1.6; 15 nM at Nav1.3; 10 nM at Nav1.1; 1000 nM at Nav1.9; 50 µM at Nav1.8; 10 nM on Nav1.2 [3].
YCQKWLWTCDSERKCCEDMVCRLWCKKRL [GsAF I]: the IC50 on Nav1.7 [4] was 249 nM; on Nav1.2 [5] (setting [7]) it was 255 ± 43 nM.
Regarding “YCQKWMWTCDEERKCCEGLVCRLWCKKKIEEG [VsTx II]”, the IC50 at Nav1.7 [4] is 9260 nM; at Nav1.2 [5] (setting [7]), 42400 nM.
Take “YCQKWMWTCDEERKCCEGLVCRLWCKKKIEW [GsAF II]”: the IC50 was 70 nM on Nav1.7 [4] and 410 ± 20 nM at Nav1.2 [5] (setting [7]).
“YCQKWMWTCDEERKCCEGLVCRLWCKRIINM [GsMTx II/PaTX II]”: the figures for the IC50 on Nav1.7 [4] and at Nav1.2 [5] (setting [7]) were 260 nM and 2700 nM, respectively.
As for YCQKWMWTCDSARKCCEGLVCRLWCKKII [PaTx I], the IC50 on Nav1.2 [5] is 5000 nM.
As to “YCQKWMWTCDSERKCCEGYVCELWCKYNL [JxTx XII]”, the IC50 on Nav1.2 [5] was 73900 nM.
With YCQKWMWTCDSKRACCEGLRCKLWCRKII [JzTx V], at Nav1.2 [5] (setting [7]), the IC50 was 157 ± 20 nM.
YCQKWMWTCDSKRKCCEDMVCQLWCKKRL [GrTx I]: the results for the IC50 on Nav1.7 [4] and on Nav1.2 [5] (setting [7]) were 1010 nM and 2690 nM, respectively.
